Assay results: US6878748B2, “Fluorinated cycloalkyl-derivatized benzoylguanidines, process for their preparation, their uses as medicament, and medicament containing them” (Aventis Pharma Deutschland GmbH, priority 2002, dated 2005)

Key:
[1] = target: T1, human NHE-1 (Homo sapiens, UniProt P19634); test: FLIPR assay for NHE-1 inhibition by measurement of the recovery in pHi in transfected cell lines; assay type: cell-based; conditions: transfected LAP-1 cell line expressing human NHE-1, BCECF fluorescence, read-out: NHE1 inhibition IC50
T1 construct: expressed in transfected cells; host or cells: LAP-1 cells (parental line has no endogenous NHE activity), G418 selection
Procedure: The NHE-1 inhibition was determined as follows:
FLIPR assay for determining NHE-1 inhibitors by measurement of the recovery in pHi in transfected cell lines which express human NHE-1
The assay is carried out in an FLIPR (fluorescent imaging plate reader) with black-walled 96-well microtiter plates with clear bases.
(The growth medium for the transfected cells (Iscove +10% fetal calf serum) additionally contains G418 as selection antibiotic in order to ensure the presence of the transfected sequences.)
The actual assay starts with the removal of the growth medium and addition of 100 μl of loading buffer per well (5 μM BCECF-AM [2′,7′-bis(carboxyethyl)-5-(and -6)-carboxyfluorescein, acetoxymethyl ester] in 20 mM NH4Cl, 115 mM choline chloride, 1 mM MgCl2, 1 mM CaCl2, 5 mM KCl, 20 mM HEPES, 5 mM glucose; pH 7.4 [adjusted with KOH]). The cells are then incubated at 37° C. for 20 minutes. This incubation leads to loading of the cells with the fluorescent dye whose fluorescence intensity depends on pHi, and with NH4Cl, which makes the cells slightly alkaline. [The nonfluorescent dye precursor BCECF-AM is, -as ester, membrane-permeable. The actual dye BCECF, which is not membrane-permeable, is liberated inside cells by esterases.] […]

T1 sequence (P19634 whole entry): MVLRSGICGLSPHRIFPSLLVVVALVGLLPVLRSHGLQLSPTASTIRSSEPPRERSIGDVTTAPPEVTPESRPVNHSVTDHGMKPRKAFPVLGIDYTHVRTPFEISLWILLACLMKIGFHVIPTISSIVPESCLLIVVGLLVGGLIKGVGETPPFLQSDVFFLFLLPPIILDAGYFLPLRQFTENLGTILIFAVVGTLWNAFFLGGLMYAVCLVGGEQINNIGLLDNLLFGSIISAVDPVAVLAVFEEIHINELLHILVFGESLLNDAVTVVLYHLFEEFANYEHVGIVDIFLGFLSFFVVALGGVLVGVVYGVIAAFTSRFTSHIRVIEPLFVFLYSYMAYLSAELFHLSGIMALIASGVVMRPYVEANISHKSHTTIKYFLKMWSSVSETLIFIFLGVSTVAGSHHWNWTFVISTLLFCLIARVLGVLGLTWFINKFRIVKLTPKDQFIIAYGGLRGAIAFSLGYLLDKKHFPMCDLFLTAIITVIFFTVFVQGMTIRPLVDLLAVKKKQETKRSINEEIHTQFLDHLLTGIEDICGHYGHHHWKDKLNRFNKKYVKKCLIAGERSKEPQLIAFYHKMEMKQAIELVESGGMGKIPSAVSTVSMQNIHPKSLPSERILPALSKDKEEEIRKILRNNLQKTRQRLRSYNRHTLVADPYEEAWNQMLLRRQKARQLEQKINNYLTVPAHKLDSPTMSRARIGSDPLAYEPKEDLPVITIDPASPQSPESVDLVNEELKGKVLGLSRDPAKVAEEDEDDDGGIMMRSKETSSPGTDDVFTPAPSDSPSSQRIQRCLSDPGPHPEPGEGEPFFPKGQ

[H]/N=C(\N)NC(=O)c1cc(S(C)(=O)=O)c(OC2CC(F)(F)C2)cc1C [Example 1, N-[4-(3,3-Difluorocyclobutoxy)-5-methanesulfonyl-2-methylbenzoyl]guanidine]
IC50 [1]: 5.9 nM | melting point: 273 °C (dec.)
